# Experimental data reported in US20240277717A1, “APPLICATION OF GANCICLOVIR IN PREPAPRATION OF MEDICINE FOR TREATING ALLERGIC RHINITIS” (Union Hospital, Tongji Medical College, Huazhong University …, priority 2023, published 2024).
# System: patients with the intractable AR
# Experiment: Interventional non-randomized cohort study of GCV for intractable AR: clinical symptom scores (VAS, ARCT, TNSS)
# Format: in vivo, human
# Conditions: for TNSS after GCV treatment / rhinocnesmus score after GCV treatment / sneezing score after GCV treatment / rhinocleisis score after GCV treatment / rhinorrhea score after GCV treatment / ARCT after GCV treatment / VAS after GCV treatment: 14 days; for ARCT after GCV then routine anti-allergic medicines / TNSS after GCV then routine anti-allergic medicines / VAS after GCV then routine anti-allergic medicines / rhinocleisis score after GCV then routine anti-allergic medicines / rhinocnesmus score after GCV then routine anti-allergic medicines / rhinorrhea score after GCV then routine anti-allergic medicines / sneezing score after GCV then routine anti-allergic medicines: then routine anti-allergic medicines 14 days
# Description: All patients are recruited from outpatient department of otolaryngology, the patients with AR complain of poor efficacy of routine anti-allergic medicines (nasal glucocorticoid sprays, oral antihistamines, nasal antihistamine sprays and oral leukotriene receptor antagonists). The inclusion and exclusion criteria of recruiting are as follows.
# The exclusion criteria: (1) patients have viral/bacterial infection symptoms, fevers and/or other systemic manifestations in the past 2 weeks; (2) patients have other nasal diseases, such as nasal polyps or nasal tumors; (3) patients have a history of nasal surgery in the past 6 months; (4) patients are allergic to the GCV; (5) patients are pregnant women and patients are preparing for pregnancy; (6) the patients have severe neutropenia (absolute neutrophil count<0.5×10^9 per liter) or severe thrombocytopenia (platelet count<2.5×10^10 per liter).
# An interventional non-randomized cohort study is conducted. Selected patients are treated with the routine anti-allergic medicines for 2 weeks to exclude the illusion of poor efficacy due to non-standard medication (combined use of nasal spray hormones and oral antihistamines to exclude treatment, and the selected patients are switched to with another brand of similar medicines if the selected patients have previously used the above medicines but no effect).
# The selected patients are grouped according to responses to the routine anti-allergic medicines. If the routine anti-allergic medicines treatments are effective, the selected patients are classified as a common AR group; if ineffective, the selected patients are defined as intractable AR patients. The intractable AR patients are treated with the GCV for 2 weeks (oral, 500 milligrams per time (mg/time) twice a day for the patients≥14 years old; 250 mg/time twice a day for the patients<14 years old). If the GCV treatments are ineffective, the patients are classified as a GCV ineffective group; if effective, the patients are classified as GCV effective group. After 2 weeks of the GCV treatment, the patients in the GCV effective group, if total nasal symptom score (TNSS)≥4 or visual analogue scale (VAS)≥3 centimeters (cm) after the GCV treatment, […], conversely, the GCV treatment ends. The nasal symptoms are evaluated at each follow-up. In this situation, nasal secretion smears, nasal secretions, nasal scraping epithelial cells and peripheral blood are collected.
# The visual analogue scale (VAS): the severity of all comprehensive symptoms is assessed by the VAS, ranging from 0 (no symptoms) to 10 centimeters (most severe and imaginable symptoms). Allergic rhinitis and its impact on asthma (ARIA) 2008 guideline classification: “mild” AR=0-3 centimeters, “moderate” AR=3.1-7 centimeters, “severe” AR=7.1-10 centimeters.
# Allergic rhinitis control test (ARCT) is a self-administered questionnaire on AR control verified by Demoly et al. It consists of five questions with a score of 1-5 points for each question scored and a total score of 5-25 points. The intractable AR is defined as patients with ARCT score<20 points after 2 weeks of treatment.
# Nasal symptom score: rhinocleisis, rhinocnesmus, sneezing, rhinorrhea are scored separately. No symptoms=0; mild (mild symptoms, easy to tolerate)=1; moderate (obvious symptoms, annoying, but tolerable)=2; severe (symptoms are not tolerable, affecting daily life or sleep)=3. The total nasal symptom score (TNSS) is the sum of all nasal symptom scores, ranging from 0 to 12.
# [1] = Case 1, GCV 250 mg/time twice a day, before 1
# [2] = Case 1, GCV 250 mg/time twice a day, before 3
# [3] = Case 2, GCV 500 mg/time twice a day, before 2
# [4] = Case 2, GCV 500 mg/time twice a day, before 7
# [5] = Case 2, GCV 14 days, then nasal spray hormone plus oral antihistamines 14 days
# [6] = Case 3, GCV 250 mg/time twice a day, before 3
# [7] = Case 4, GCV 500 mg/time twice a day, before 1
# [8] = Case 5, GCV 500 mg/time twice a day, before 3
smiles,measurement,setting,value
"Nc1nc(O)c2ncn(COC(CO)CO)c2n1 [GCV, Ganciclovir]",TNSS after GCV treatment,"Case 1 (person one), GCV 250 mg/time twice a day, before 8",3 points
same,rhinocnesmus score after GCV treatment,[1],1 points
same,sneezing score after GCV treatment,[1],0 points
same,rhinocleisis score after GCV treatment,[2],1 points
same,rhinorrhea score after GCV treatment,[2],1 points
same,ARCT after GCV treatment,"Case 1, GCV 250 mg/time twice a day, before 5",21 points
same,VAS after GCV treatment,"Case 1, GCV 250 mg/time twice a day, before 8",4.5 cm
same,ARCT after GCV then routine anti-allergic medicines,"Case 1, GCV 14 days",24 points
same,TNSS after GCV then routine anti-allergic medicines,"Case 1, GCV 14 days",2 points
same,VAS after GCV then routine anti-allergic medicines,"Case 1, GCV 14 days",2.5 cm
same,rhinocleisis score after GCV then routine anti-allergic medicines,"Case 1, GCV 14 days",1 points
same,rhinocnesmus score after GCV then routine anti-allergic medicines,"Case 1, GCV 14 days",0 points
same,rhinorrhea score after GCV then routine anti-allergic medicines,"Case 1, GCV 14 days",1 points
same,sneezing score after GCV then routine anti-allergic medicines,"Case 1, GCV 14 days",0 points
same,rhinocleisis score after GCV treatment,[3],2 points
same,rhinocnesmus score after GCV treatment,[3],2 points
same,rhinorrhea score after GCV treatment,[3],0 points
same,sneezing score after GCV treatment,[3],0 points
same,ARCT after GCV treatment,[4],20 points
same,VAS after GCV treatment,[4],4 cm
same,TNSS after GCV treatment,"Case 2, GCV 500 mg/time twice a day, before 8",4 points
same,ARCT after GCV then anti-allergic medicines,[5],25 points
same,TNSS after GCV then anti-allergic medicines,[5],1 point
same,VAS after GCV then anti-allergic medicines,[5],2 cm
same,rhinocleisis score after GCV then anti-allergic medicines,[5],1 point
same,rhinocnesmus score after GCV then anti-allergic medicines,[5],0 point
same,rhinorrhea score after GCV then anti-allergic medicines,[5],0 point
same,sneezing score after GCV then anti-allergic medicines,[5],0 point
same,rhinocleisis score after GCV treatment,[6],2 points
same,rhinocnesmus score after GCV treatment,[6],1 points
same,rhinorrhea score after GCV treatment,[6],3 points
same,sneezing score after GCV treatment,[6],3 points
same,ARCT after GCV treatment,"Case 3, GCV 250 mg/time twice a day, before 5",22 points
same,VAS after GCV treatment,"Case 3, GCV 250 mg/time twice a day, before 10",5 cm
same,TNSS after GCV treatment,"Case 3, GCV 250 mg/time twice a day, before 12",9 points
same,ARCT after GCV then routine anti-allergic medicines,"Case 3, GCV 14 days",25 points
same,TNSS after GCV then routine anti-allergic medicines,"Case 3, GCV 14 days",3 points
same,VAS after GCV then routine anti-allergic medicines,"Case 3, GCV 14 days",2.5 cm
same,rhinocleisis score after GCV then routine anti-allergic medicines,"Case 3, GCV 14 days",1 point
same,rhinocnesmus score after GCV then routine anti-allergic medicines,"Case 3, GCV 14 days",0 point
same,rhinorrhea score after GCV then routine anti-allergic medicines,"Case 3, GCV 14 days",1 point
same,sneezing score after GCV then routine anti-allergic medicines,"Case 3, GCV 14 days",1 point
same,ARCT after GCV treatment,"Case 4, GCV 500 mg/time twice a day",24 points
same,rhinocnesmus score after GCV treatment,[7],0 point
same,sneezing score after GCV treatment,[7],0 point
same,rhinorrhea score after GCV treatment,"Case 4, GCV 500 mg/time twice a day, before 2",1 point
same,rhinocleisis score after GCV treatment,"Case 4, GCV 500 mg/time twice a day, before 3",1 point
same,TNSS after GCV treatment,"Case 4, GCV 500 mg/time twice a day, before 7",2 points
same,VAS after GCV treatment,"Case 4, GCV 500 mg/time twice a day, before 9",1.5 cm
same,nasal symptoms after GCV then nasal spray hormone,"Case 4, GCV 14 days, then 7 days of the nasal spray hormone",disappear completely
same,rhinocnesmus score after GCV treatment,"Case 5, GCV 500 mg/time twice a day, before 0",0 point
same,rhinorrhea score after GCV treatment,"Case 5, GCV 500 mg/time twice a day, before 1",1 point
same,rhinocleisis score after GCV treatment,[8],1 point
same,sneezing score after GCV treatment,[8],0 point
same,ARCT after GCV treatment,"Case 5, GCV 500 mg/time twice a day, before 5",24 points
same,TNSS after GCV treatment,"Case 5, GCV 500 mg/time twice a day, before 7",2 points
same,VAS after GCV treatment,"Case 5, GCV 500 mg/time twice a day, before 10",2.2 cm
same,"nasal symptom (rhinocleisis, rhinocnesmus, sneezing, rhinorrhea) scores before and after GCV treatment (FIG. 2)",GCV effective group,significantly improved
same,"ARCT, VAS and TNSS scores during diagnosis and treatment (FIGS. 1A-1C)","GCV effective group n=26, after 2 weeks GCV",significantly ameliorates the nasal symptoms
same,nasal symptoms after re-treatment with previously ineffective anti-allergic medicines following GCV,"n=15 with TNSS≥4 or VAS≥3 cm after 2 weeks GCV, then anti-allergic medicines 2 weeks",could further reduce the nasal symptoms
same,intractable AR patients ineffective after the GCV treatment,"oral GCV 2 weeks, 14/40, ineffective = ARCT<20",35%
